In the supplement of paper PMC10307832:

Key:
Test in all cases: relative viability (nuclei count vs DMSO), 5 days (fraction); higher = more cells survive
Etoposide + Pictilisib = compound: COc1cc([C@@H]2c3cc4c(cc3[C@@H](O[C@@H]3O[C@@H]5CO[C@@H](C)O[C@H]5[C@H](O)[C@H]3O)[C@H]3COC(=O)[C@H]23)OCO4)cc(OC)c1O [Etoposide] + CS(=O)(=O)N1CCN(Cc2cc3nc(-c4cccc5[nH]ncc45)nc(N4CCOCC4)c3s2)CC1 [Pictilisib] (partner 1 µM)
Method in brief: (§1)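 Lung cancer cell lines in 1536-well plates got either a single drug or a fixed anchor-drug dose together with five library-drug doses (not always all listed) in √10 steps, by pin tool, on the day after seeding. Nuclei were counted after 5 days, and relative viability is the treated-to-vehicle ratio of nuclei counts. Values are medians of duplicate plates.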

Bleomycin + Olaparib = compound: CC1=C(N=C(N=C1N)[C@H](CC(=O)N)NC[C@@H](C(=O)N)N)C(=O)N[C@@H]([C@H](C2=CN=CN2)OC3C(C(C(C(O3)CO)O)O)OC4C(C(C(C(O4)CO)O)OC(=O)N)O)C(=O)N[C@H](C)[C@H]([C@H](C)C(=O)N[C@@H]([C@@H](C)O)C(=O)NCCC5=NC(=CS5)C6=NC(=CS6)C(=O)NCCC[S+](C)C)O [Bleomycin] + O=C(c1cc(Cc2n[nH]c(=O)c3ccccc23)ccc1F)N1CCN(C(=O)C2CC2)CC1 [Olaparib] (partner 8 µM); conditions: main component drawn
Method in brief: as §1

Bleomycin + Luminespib = compound: CC1=C(N=C(N=C1N)[C@H](CC(=O)N)NC[C@@H](C(=O)N)N)C(=O)N[C@@H]([C@H](C2=CN=CN2)OC3C(C(C(C(O3)CO)O)O)OC4C(C(C(C(O4)CO)O)OC(=O)N)O)C(=O)N[C@H](C)[C@H]([C@H](C)C(=O)N[C@@H]([C@@H](C)O)C(=O)NCCC5=NC(=CS5)C6=NC(=CS6)C(=O)NCCC[S+](C)C)O [Bleomycin] + CCNC(=O)c1noc(-c2cc(C(C)C)c(O)cc2O)c1-c1ccc(CN2CCOCC2)cc1 [Luminespib] (partner 0.01 µM); conditions: main component drawn
Method in brief: as §1

Etoposide + AZD7762 = compound: COc1cc([C@@H]2c3cc4c(cc3[C@@H](O[C@@H]3O[C@@H]5CO[C@@H](C)O[C@H]5[C@H](O)[C@H]3O)[C@H]3COC(=O)[C@H]23)OCO4)cc(OC)c1O [Etoposide] + NC(=O)Nc1cc(-c2cccc(F)c2)sc1C(=O)N[C@H]1CCCNC1 [AZD7762] (partner 0.2 µM)
Method in brief: as §1

Cell Line	relative viability (Etoposide + Pictilisib; first compound 0.01 µM)	relative viability (Etoposide + Pictilisib; first compound 0.03162 µM)	relative viability (Etoposide + Pictilisib; first compound 0.1 µM)	relative viability (Etoposide + Pictilisib; first compound 0.3162 µM)	relative viability (Etoposide + Pictilisib; first compound 1 µM)	relative viability (Bleomycin + Olaparib; first compound 0.01 µM)	relative viability (Bleomycin + Olaparib; first compound 0.03162 µM)	relative viability (Bleomycin + Olaparib; first compound 0.1 µM)	relative viability (Bleomycin + Olaparib; first compound 0.3162 µM)	relative viability (Bleomycin + Olaparib; first compound 1 µM)	relative viability (Bleomycin + Luminespib; first compound 0.01 µM)	relative viability (Bleomycin + Luminespib; first compound 0.03162 µM)	relative viability (Bleomycin + Luminespib; first compound 0.1 µM)	relative viability (Bleomycin + Luminespib; first compound 0.3162 µM)	relative viability (Bleomycin + Luminespib; first compound 1 µM)	relative viability (Etoposide + AZD7762; first compound 0.03162 µM)	relative viability (Etoposide + AZD7762; first compound 0.1 µM)	relative viability (Etoposide + AZD7762; first compound 0.3162 µM)	relative viability (Etoposide + AZD7762; first compound 1 µM)	relative viability (Etoposide + AZD7762; first compound 0.01 µM)
NCI-H1299	0.777	0.672	0.641	0.644	0.332	0.819	0.904	0.681	0.346	0.252										
NCI-H1650	0.506	0.572	0.378	0.196	0.139	0.285	0.183	0.167	0.156	0.158	0.172	0.213	0.213	0.18	0.188					
NCI-H2009	0.693	0.898	0.54	0.543	0.236	0.586	0.709	0.62	0.453	0.268	0.962	1.04	0.961	0.704	0.618					
NCI-H1648						0.757	0.571	0.443	0.267	0.357						0.762	0.991	0.722	0.451	
SK-MES-1	0.361	0.336	0.301	0.242	0.167	0.528	0.493	0.439	0.169	0.153	0.701	0.641	0.641	0.244	0.202					
NCI-H2342						0.377	0.4	0.416	0.319	0.362	0.646	0.665	0.693	0.523	0.525	0.441	0.337	0.433	0.4	0.573
SW 900						0.577	0.615	0.442	0.218	0.206	0.187	0.166	0.199	0.185	0.183	0.7	0.379	0.539	0.293	0.561
HCC-366	0.198	0.188	0.0748	0.0491	0.0362	0.157	0.134	0.126	0.0346	0.0334						0.251	0.187	0.091	0.0373	0.227
A549	0.49	0.432	0.221	0.0914	0.0659	0.25	0.263	0.29	0.0728	0.0649										
NCI-H520	0.306	0.307	0.27	0.277	0.223	0.339	0.322	0.325	0.251	0.268	0.227	0.196	0.218	0.24	0.213					
NCI-H1563	0.661	0.653	0.61	0.501	0.555						0.512	0.535	0.479	0.487	0.465					
